The source of these data is patent US20250289804A1, “SUBSTITUTED INDOLE COMPOUNDS AND METHODS OF USE THEREOF” (NOVARTIS PHARMA AG, priority 2021, published 2025).

Like-named read-outs stand apart in the source and are kept apart here.

The target of one assay is human C3bBb (Homo sapiens (Human), UniProt P00751). The assay can be described thus: Human C3bBb enzyme assay (C3a generation from C3, ELISA). The class given is biochemical. The following applies: read-out: Human C3b:Bb IC50 Avg. As for the experimental part:
Compounds disclosed herein were evaluated for their potency to inhibit human C3bBb in a biochemical assay. To generate active C3bBb complex in vitro, purified human C3b (Complement Technology, A114), CFB (Complement Technology, A135) and CFD (Complement Technology, A136) were mixed in a 1:1:1 ratio to a final concentration of 1 μM each in the C3bBb assay buffer (PBS pH 7.4, 100 μM NiCl2, 0.05% (w/v) CHAPS). The reaction mix was incubated at room temperature for 30 minutes on a rotating platform. […] On the day of the enzyme assay, a reaction mixture containing 3 nM C3bBb complex and 1 μM purified human C3 (Complement Technology, A113) was prepared in the C3bBb assay buffer. Compounds were serial diluted 3-fold in 100% DMSO for a 10-point dose-response curve. A 0.5 μL aliquot of diluted compound solution was transferred to a conical bottom 96-well plate, before 49.5 μL of the reaction mix was added to each well to initiate the reaction. The plate was incubated for 1 hour at room temperature. […] The generation of C3a from C3 by the C3bBb complex was measured using the MicroVue C3a Plus EIA ELISA kit (Quidel, A031). The concentration of C3a from each well was calculated using a standard curve. Percent inhibition values were generated using the baseline (C3 only) and the maximum control (DMSO instead of compound), and IC50 of each compound was calculated using 4-parameter logistic regression.

The test system of assay [1] is MAC formation in normal human serum. Kind of assay: Human serum MAC formation assay (zymosan-coated plates, 50% normal human serum). The following applies: 50% normal human serum with EGTA, 37° C. 30 minutes. As for the experimental part: MAC deposition assay using normal human serum was applied to evaluate compound potency under physiologically relevant conditions. Black Maxisorp plates (Thermo Fisher, 437111) were coated with preactivated zymosan (Complement Technology, B400) at 0.5 mg/mL in carbonate buffer (pH 9.5, Sigma, C3041) at room temperature overnight. Compounds were serial diluted 3-fold in 100% DMSO for a 10-point dose-response curve. Normal human serum (Complement Technology, NHS) was diluted to 50% (v/v) with the gelatin buffer (4.2 mM HEPES pH 7.4, 0.15 mM CaCl2, 141 mM NaCl, 4.5 mM MgCl2, 0.1% gelatin) containing 20 mM EGTA or 20 mM EDTA. In conical bottom 96-well plates, 1 μL compound and 99 μL of serum-EGTA were mixed. Serum-EDTA was used as baseline control. The serum-compound mixture was incubated at room temperature for 15 minutes before being transferred to the washed zymosan plate for complement activation at 37° C. for 30 minutes. The reaction was terminated by decanting the reaction mixture and adding blocking buffer (Thermo Fisher, 37539) for 20 minutes. MAC formation on the ELISA plate was detected using 0.2 μg/mL mouse anti-human C9 neoepitope monoclonal antibody (Thermo Fisher, MA5-33373) diluted in phosphate-buffered saline with 0.05% Tween-20 (PBST). A goat anti-mouse IgG-HRP antibody (Thermo Fisher, A16072) was used at 1:2000 in PBST as secondary antibody. After washing, the reaction was developed using QuantaBlu (Thermo Fisher, 15169) for 20 minutes at room temperature. The plates were read at 325 nm excitation and 420 nm emission wavelengths. Percent inhibition values were generated using the baseline (EDTA-serum) and the maximum control (EGTA-serum). An IC50 for each compound was calculated using 4-parameter logistic regression.

[2] abbreviates: 3 nM C3bBb complex, 1 μM human C3, 1 hour room temperature.
Setting [3] is: starred values: assay conducted with 1 nM C3b:Bb enzyme.

Sequence of human C3bBb (P00751 260-764): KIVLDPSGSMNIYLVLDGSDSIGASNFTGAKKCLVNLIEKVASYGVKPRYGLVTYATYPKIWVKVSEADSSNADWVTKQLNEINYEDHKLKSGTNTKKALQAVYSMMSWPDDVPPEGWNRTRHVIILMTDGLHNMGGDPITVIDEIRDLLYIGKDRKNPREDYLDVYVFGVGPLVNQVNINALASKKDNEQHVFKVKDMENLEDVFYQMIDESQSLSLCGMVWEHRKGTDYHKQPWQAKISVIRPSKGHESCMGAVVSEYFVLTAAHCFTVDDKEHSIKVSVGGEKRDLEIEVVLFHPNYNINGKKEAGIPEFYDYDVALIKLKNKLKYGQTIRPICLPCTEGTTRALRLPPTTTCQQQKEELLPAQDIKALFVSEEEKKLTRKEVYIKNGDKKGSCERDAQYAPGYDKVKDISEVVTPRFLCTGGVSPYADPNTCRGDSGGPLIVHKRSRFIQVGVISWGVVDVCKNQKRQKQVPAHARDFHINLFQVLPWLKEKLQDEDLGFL
Sequence of human C3bBb (P01024 23-667 partner): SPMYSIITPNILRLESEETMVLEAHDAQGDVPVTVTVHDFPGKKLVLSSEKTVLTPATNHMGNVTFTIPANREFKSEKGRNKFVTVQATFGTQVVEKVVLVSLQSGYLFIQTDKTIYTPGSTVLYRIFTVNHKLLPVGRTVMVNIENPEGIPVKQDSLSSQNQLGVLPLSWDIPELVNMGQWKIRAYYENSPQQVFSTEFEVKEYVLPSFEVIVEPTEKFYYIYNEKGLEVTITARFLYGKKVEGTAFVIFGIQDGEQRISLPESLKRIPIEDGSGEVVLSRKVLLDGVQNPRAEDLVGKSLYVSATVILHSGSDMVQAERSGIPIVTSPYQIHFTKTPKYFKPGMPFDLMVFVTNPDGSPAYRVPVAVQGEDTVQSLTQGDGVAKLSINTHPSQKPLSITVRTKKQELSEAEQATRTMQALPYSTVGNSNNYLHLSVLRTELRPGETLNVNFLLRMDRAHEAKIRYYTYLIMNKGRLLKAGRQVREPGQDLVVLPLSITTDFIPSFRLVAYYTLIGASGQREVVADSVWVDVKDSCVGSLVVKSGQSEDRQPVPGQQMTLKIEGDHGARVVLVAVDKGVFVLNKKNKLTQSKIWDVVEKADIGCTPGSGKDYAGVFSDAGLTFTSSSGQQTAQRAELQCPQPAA
Sequence of human C3bBb (P01024 749-1663 partner): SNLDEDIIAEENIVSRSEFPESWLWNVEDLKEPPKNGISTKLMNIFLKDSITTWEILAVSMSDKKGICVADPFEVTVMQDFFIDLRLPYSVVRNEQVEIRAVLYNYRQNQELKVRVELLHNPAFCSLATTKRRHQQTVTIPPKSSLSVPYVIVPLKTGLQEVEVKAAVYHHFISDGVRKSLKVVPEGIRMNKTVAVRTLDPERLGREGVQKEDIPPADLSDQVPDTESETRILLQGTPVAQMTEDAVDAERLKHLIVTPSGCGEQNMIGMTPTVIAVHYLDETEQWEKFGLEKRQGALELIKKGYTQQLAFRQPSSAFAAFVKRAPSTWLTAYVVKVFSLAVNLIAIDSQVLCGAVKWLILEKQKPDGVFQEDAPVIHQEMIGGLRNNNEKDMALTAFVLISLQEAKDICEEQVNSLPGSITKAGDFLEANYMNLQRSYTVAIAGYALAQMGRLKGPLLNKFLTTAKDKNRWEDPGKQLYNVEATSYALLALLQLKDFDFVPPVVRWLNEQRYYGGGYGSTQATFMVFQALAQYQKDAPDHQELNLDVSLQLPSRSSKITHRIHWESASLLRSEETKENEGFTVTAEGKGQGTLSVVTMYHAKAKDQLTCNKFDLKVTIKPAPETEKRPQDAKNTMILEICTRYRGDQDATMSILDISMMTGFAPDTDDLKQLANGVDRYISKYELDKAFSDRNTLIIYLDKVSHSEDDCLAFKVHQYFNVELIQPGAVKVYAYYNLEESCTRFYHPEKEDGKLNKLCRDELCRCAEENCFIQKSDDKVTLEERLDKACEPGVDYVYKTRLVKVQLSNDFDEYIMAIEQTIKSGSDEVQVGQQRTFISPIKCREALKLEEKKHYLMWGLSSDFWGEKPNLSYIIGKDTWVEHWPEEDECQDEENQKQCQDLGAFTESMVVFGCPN

With `COc1cc(C)c2[nH]ccc2c1CN1CC2(CCCC2)C1c1ccc(C(=O)O)cc1` (racemic) [Example 39, (±)-4-(2-((5-methoxy-7-methyl-1H-indol-4-yl)methyl)-2-azaspiro[3.4]octan-1-yl)benzoic acid], the IC50 is over 100 nM at human C3bBb (setting [2]) and 300 to 500 nM in assay [1]. As for `COc1cc(C)c2[nH]ccc2c1CN1CC[C@]2(C[C@H]1c1ccc(C(=O)O)cc1)C[C@@H](C#N)C2` (single isomer, unassigned) [Example 52, 4-((2R,4s,6S)-2-cyano-7-((5-methoxy-7-methyl-1H-indol-4-yl)methyl)-7-azaspiro[3.5]nonan-6-yl)benzoic acid or 4-((2S,4r,6S)-2-cyano-7-((5-methoxy-7-methyl-1H-indol-4-yl)methyl)-7-azaspiro[3.5]nonan-6-yl)benzoic acid], the IC50 on human C3bBb (setting [3]) is under 10 nM; in assay [1], under 100 nM. Regarding `COc1cc(C)c2[nH]ccc2c1CN1CC[C@H](n2cncn2)C[C@H]1c1ccc(C(=O)O)cc1` (racemic) [Example 3, (±)-trans-4-(1-((5-methoxy-7-methyl-1H-indol-4-yl)methyl)-4-(1H-1,2,4-triazol-1-yl)piperidin-2-yl)benzoic acid], the IC50 is 10 to 25 nM at human C3bBb (setting [2]) and over 500 nM in assay [1]. With `COc1cc(C)c2[nH]ccc2c1CN1CC[C@]2(C[C@H]1c1ccc(C(=O)O)cc1)C[C@@H](F)C2` (single isomer, unassigned) [Example 63, 4-((2R,4s,6S)-2-fluoro-7-((5-methoxy-7-methyl-1H-indol-4-yl)methyl)-7-azaspiro[3.5]nonan-6-yl)benzoic acid or 4-((2S,4r,6S)-2-fluoro-7-((5-methoxy-7-methyl-1H-indol-4-yl)methyl)-7-azaspiro[3.5]nonan-6-yl)benzoic acid], the IC50 at human C3bBb (setting [3]) was under 10 nM; in assay [1] it was under 100 nM. For `Cc1cc(C2CC2)c(CN2CC[C@H](N3CC(C#N)C3)C[C@H]2c2ccc(C(=O)O)cc2)c2cc[nH]c12` [Example 77, 4-((2S,4S)-4-(3-cyanoazetidin-1-yl)-1-((5-cyclopropyl-7-methyl-1H-indol-4-yl)methyl)piperidin-2-yl)benzoic acid] the same measures were under 10 nM and under 100 nM.

As for `COc1cc(C)c2[nH]ccc2c1CN1CCN(CC(F)F)C[C@H]1c1ccc(C(=O)O)cc1` [Example 66, (R)-4-(4-(2,2-difluoroethyl)-1-((5-methoxy-7-methyl-1H-indol-4-yl)methyl)piperazin-2-yl)benzoic acid], the IC50 at human C3bBb (setting [3]) lay in the range of 25 to 50 nM; in assay [1], 100 to 200 nM. Turning to `COc1cc(C)c2[nH]ccc2c1CN1CCN(CCC(F)(F)F)C[C@H]1c1ccc(C(=O)O)cc1` [Example 68, (R)-4-(1-((5-methoxy-7-methyl-1H-indol-4-yl)methyl)-4-(3,3,3-trifluoropropyl)piperazin-2-yl)benzoic acid], the IC50 on human C3bBb (setting [3]) is under 10 nM; in assay [1], 100 to 200 nM. On to `COc1cc(C)c2[nH]ccc2c1CN1CC[C@H](c2ccccn2)C[C@H]1c1ccc(C(=O)O)cc1` [Example 38, 4-((2S,4S)-1-((5-methoxy-7-methyl-1H-indol-4-yl)methyl)-4-(pyridin-2-yl)piperidin-2-yl)benzoic acid], for which the IC50 at human C3bBb (setting [2]) lay in the range of 50 to 100 nM; in assay [1], 200 to 300 nM. With `COc1cc(C)c2[nH]ccc2c1CN1CC[C@H](NC2CCC2)C[C@H]1c1ccc(C(=O)O)cc1` [Example 20, 4-((2S,4S)-4-(cyclobutylamino)-1-((5-methoxy-7-methyl-1H-indol-4-yl)methyl)piperidin-2-yl)benzoic acid], the IC50 lay in the range of 25 to 50 nM on human C3bBb (setting [2]) and 300 to 500 nM in assay [1]. For `COc1cc(C)c2[nH]ccc2c1CN1CC[C@H](c2ccccc2)C[C@H]1c1ccc(C(=O)O)cc1` (racemic) [Example 37, (±)-trans-4-(1-((5-methoxy-7-methyl-1H-indol-4-yl)methyl)-4-phenylpiperidin-2-yl)benzoic acid], the IC50 at human C3bBb (setting [2]) was over 100 nM; in assay [1], over 500 nM. For `COc1cc(C)c2[nH]ccc2c1CN1CC[C@H](N2CC(F)C2)C[C@H]1c1ccc(C(=O)O)cc1` [Example 80, 4-((2S,4S)-4-(3-fluoroazetidin-1-yl)-1-((5-methoxy-7-methyl-1H-indol-4-yl)methyl)piperidin-2-yl)benzoic acid], the IC50 at human C3bBb (setting [3]) was 25 to 50 nM; in assay [1], 200 to 300 nM.

For `COc1cc(C)c2[nH]ccc2c1CN1CCC2(CC(=O)C2)C[C@H]1c1ccc(C(=O)O)cc1` [Example 58, (S)-4-(7-((5-methoxy-7-methyl-1H-indol-4-yl)methyl)-2-oxo-7-azaspiro[3.5]nonan-6-yl)benzoic acid], the IC50 at human C3bBb (setting [3]) was under 10 nM; in assay [1], 100 to 200 nM. As for `COc1cc(C)c2[nH]ccc2c1CN1CC[C@]2(C[C@H]1c1ccc(C(=O)O)cc1)C[C@@H](C(F)(F)F)C2` (single isomer, unassigned) [Example 48, 4-((2R,4s,6S)-7-((5-methoxy-7-methyl-1H-indol-4-yl)methyl)-2-(trifluoromethyl)-7-azaspiro[3.5]nonan-6-yl)benzoic acid or 4-((2S,4r,6S)-7-((5-methoxy-7-methyl-1H-indol-4-yl)methyl)-2-(trifluoromethyl)-7-azaspiro[3.5]nonan-6-yl)benzoic acid], the IC50 at human C3bBb (setting [3]) was under 10 nM; in assay [1] it was under 100 nM. For the compound `COc1cc(C)c2[nH]ccc2c1CN1CC[C@H](N2CC(C(F)(F)F)C2)C[C@H]1c1ccc(C(=O)O)cc1` (racemic) [Example 71, (±)-trans-4-1-((5-methoxy-7-methyl-1H-indol-4-yl)methyl)-4-(3-(trifluoromethyl)azetidin-1-yl)piperidin-2-yl)benzoic acid], the values for the concentration for half-maximal inhibition (IC50) (at human C3bBb (setting [3]); in assay [1]) were under 10 nM and 300 to 500 nM, respectively. Consider `COc1cc(C)c2[nH]ccc2c1CN1CC[C@H](C2CCC2)C[C@H]1c1ccc(C(=O)O)cc1` (mixture of isomers) [Example 43, 4-((2S,4S)-4-cyclobutyl-1-((5-methoxy-7-methyl-1H-indol-4-yl)methyl)piperidin-2-yl)benzoic acid and 4-((2S,4R)-4-cyclobutyl-1-((5-methoxy-7-methyl-1H-indol-4-yl)methyl)piperidin-2-yl)benzoic acid], for which the IC50 at human C3bBb (setting [3]) was 50 to 100 nM; in assay [1], over 500 nM. As to `COc1cc(C)c2[nH]ccc2c1CN1CC[C@H](n2cnc(C(F)(F)F)n2)C[C@H]1c1ccc(C(=O)O)cc1` (racemic) [Example 5, (±)-trans-4-(1-((5-methoxy-7-methyl-1H-indol-4-yl)methyl)-4-(3-(trifluoromethyl)-1H-1,2,4-triazol-1-yl)piperidin-2-yl)benzoic acid], the IC50 in assay [1] was over 500 nM. As to `COc1cc(C)c2[nH]ccc2c1CN1CC[C@H](C2CC2)C[C@H]1c1ccc(C(=O)O)cc1` [Example 41, 4-((2S,4S)-4-cyclopropyl-1-((5-methoxy-7-methyl-1H-indol-4-yl)methyl)piperidin-2-yl)benzoic acid], the IC50 in assay [1] was 100 to 200 nM. `COc1cc(C)c2[nH]ccc2c1CN1CC[C@H](NCC2(C(F)(F)F)CC2)C[C@H]1c1ccc(C(=O)O)cc1` [Example 27, 4-((2S,4S)-1-((5-methoxy-7-methyl-1H-indol-4-yl)methyl)-4-(((1-(trifluoromethyl)cyclopropyl)methyl)amino)piperidin-2-yl)benzoic acid] yielded an IC50 in assay [1] of 100 to 200 nM.

As for `COc1cc(C)c2[nH]ccc2c1CN1CC[C@H](n2cc3ccccc3n2)C[C@H]1c1ccc(C(=O)O)cc1` (racemic) [Example 6, (±)-trans-4-(4-(2H-indazol-2-yl)-1-((5-methoxy-7-methyl-1H-indol-4-yl)methyl)piperidin-2-yl)benzoic acid], in assay [1], the IC50 is over 500 nM.

Broadly, the IC50 is the concentration needed to halve the response being measured.
